Substitutions are numbered along the chain they refer to. Where two headings read alike, the source gives them in different places. *1 amine or outer side, *2 acyl side, *3 side chain or, on linkers, in order; H or OH if unused. Where a SMILES comes first, the peptide text is derived from it. γGlu = O=C(O)[CH](CCC(=O)[*:2])N[*:1]
Columns and labels:
human CaSR R66A mutant = target: T1, human CaSR R66A mutant (Homo sapiens, UniProt P41180, R66A); experiment: Calcium mobilization assay, CaSR R66A mutant; assay type: cell-based; settings: for Response in calcium mobilization assay: in words; for EC50: mean ± s.e.m., n = 3
T1 construct: (N); expressed in transfected cells; host or cells: PEAKrapid cells (ATCC), pcDNA 3.1, transient transfection
T1 sequence (P41180 20-1078 R66A): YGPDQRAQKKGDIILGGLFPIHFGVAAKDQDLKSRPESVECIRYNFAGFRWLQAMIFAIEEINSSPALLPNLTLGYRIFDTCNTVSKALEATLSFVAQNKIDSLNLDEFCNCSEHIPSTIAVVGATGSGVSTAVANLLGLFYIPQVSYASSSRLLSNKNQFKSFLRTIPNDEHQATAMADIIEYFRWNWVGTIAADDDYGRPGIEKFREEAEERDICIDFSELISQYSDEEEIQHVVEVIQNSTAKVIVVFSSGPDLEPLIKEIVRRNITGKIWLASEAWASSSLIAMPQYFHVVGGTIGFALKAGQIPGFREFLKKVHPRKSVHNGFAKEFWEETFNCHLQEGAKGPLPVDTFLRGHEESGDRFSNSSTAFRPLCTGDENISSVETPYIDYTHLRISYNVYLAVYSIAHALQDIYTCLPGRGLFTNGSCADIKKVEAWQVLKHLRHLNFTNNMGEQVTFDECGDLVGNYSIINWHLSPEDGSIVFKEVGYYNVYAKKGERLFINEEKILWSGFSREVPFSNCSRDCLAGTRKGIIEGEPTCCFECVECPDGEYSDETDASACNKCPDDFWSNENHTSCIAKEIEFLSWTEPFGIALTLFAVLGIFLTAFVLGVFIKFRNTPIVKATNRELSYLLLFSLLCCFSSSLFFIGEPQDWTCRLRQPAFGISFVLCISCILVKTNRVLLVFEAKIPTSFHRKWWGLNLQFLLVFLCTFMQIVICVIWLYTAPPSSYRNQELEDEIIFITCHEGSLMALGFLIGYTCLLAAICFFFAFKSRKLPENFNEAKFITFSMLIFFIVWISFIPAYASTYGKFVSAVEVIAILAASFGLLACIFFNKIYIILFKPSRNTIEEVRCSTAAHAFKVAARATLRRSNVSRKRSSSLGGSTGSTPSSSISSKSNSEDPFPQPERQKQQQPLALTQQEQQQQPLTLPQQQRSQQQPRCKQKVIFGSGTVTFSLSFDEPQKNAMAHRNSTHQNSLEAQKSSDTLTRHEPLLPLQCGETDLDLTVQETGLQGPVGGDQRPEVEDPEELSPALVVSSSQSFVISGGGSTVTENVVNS
Method: (§1) The CaSR receptor responsiveness was assessed by using PEAK^rapid cells (ATCC, Manassas, VA, USA) transiently transfected with the receptor DNA by the method reported by Kitajima et al.[6]. Briefly, human CaSR or its mutant cDNA with a signal sequence (MAFYSCCWVLLALTWHTSA) followed by FLAG-tag (DYKDDDDK) were inserted into pcDNA 3.1 expression vectors in Opti-MEM I medium (Thermo Fisher Scientific), mixed with FuGENE 6 (Roche), and poured onto PEAK^rapid cells grown at a submaximal concentration. After culturing for 24 h in 96-well plates, the cells were incubated with 5 µM Calcium-5 solution (Calcium-5 assay kit, Molecular Devices) for 45–60 min, and measurements were performed using a plate reader (FDSS/µCELL, Hamamatsu Photonics, Shizuoka, Japan) and its associated software. The activation of CaSR expressed in cells increases the intracellular Ca^2+ concentration, which is measured using a Ca^2+-sensitive dye. The binding of Ca^2+ to the Ca^2+-sensitive dye increases dye fluorescence, with excitation at 485 nm and emission at 525 nm. Test compounds were dissolved and administered in the assay buffer (146 mM NaCl, 1 mM MgSO4, 20 mM HEPES, 1 mM CaCl2, 2.5 mM probenecid, and 1.39 mM glucose, pH 7.4). Transiently transfected cells were challenged with compounds and compared with the vehicle alone and/or mock-transfected cells. The concentration dependence of the fluorescence intensity (influx of Ca^2+) was analyzed using the plate reader at 1 s intervals for 180 s. For the dose–response curve calculations, peak fluorescence responses after the addition of compounds were corrected for, normalized to the background fluorescence (ΔF/F = –F − F0)/F0), and baseline noise was subtracted. Dose–response curves were calculated by non-linear regression using GraphPad PRISM 8.0.

human CaSR N102F mutant = target: T2, human CaSR N102F mutant (Homo sapiens, UniProt P41180, N102F); experiment: Calcium mobilization assay, CaSR N102F mutant; assay type: cell-based; settings: for Response in calcium mobilization assay: in words, compared with wild type; for Emax: read-out: Emax (% of wild-type values)
T2 construct: (N); expressed in transfected cells; host or cells: PEAKrapid cells (ATCC), pcDNA 3.1, transient transfection
T2 sequence (P41180 20-1078 N102F): T1 sequence (P41180 20-1078 R66A) with A47R, N83F
Method: as §1

[1] = N102F mutant, mean ± s.e.m., n = 3, read-out: EC50

Response in calcium mobilization assay (human CaSR R66A mutant; R66A mutant)	Response in calcium mobilization assay (human CaSR N102F mutant; N102F mutant)	EC50 (human CaSR N102F mutant; [1]) [mM]	Emax (human CaSR N102F mutant; N102F mutant) [%]	Emax (% of wild-type values) (human CaSR N102F mutant; N102F mutant)	Emax (% of wild-type values) (human CaSR R66A mutant; R66A mutant)	EC50 (human CaSR R66A mutant; R66A mutant) [mM]	Compound	EC50 (human CaSR R66A mutant; R66A mutant, ND not detected) [mM]	Emax (human CaSR R66A mutant; read-out: Emax (% of wild-type values)) [%]	EC50 of N102F mutant relative to wild-type EC50 (human CaSR N102F mutant; 6.52 / 0.18, N102F vs wild type)	EC50 (human CaSR N102F mutant; N102F mutant, read-out: EC50 of the N102F mutant) [mM]	Emax (human CaSR N102F mutant) [%]
no response	more active than the wild type	2.16 ± 0.4	132	–	–	–	N[C@@H](Cc1ccc(O)cc1)C(=O)O [L-Tyr, L-tyrosine]	–	–	–	–	–
no response	more active than the wild type	0.00448 ± 0.0002	–	194.8 % of WT	–	–	CC(C)[C@H](NC(=O)CC[C@H](N)C(=O)O)C(=O)O [γ-EV, γ-glutamyl-valine]	–	–	–	–	–
–	–	2.75 ± 0.21	–	87.8 % of WT	107.2 % of WT	3.87 ± 0.5	[Ca+2].[Cl-].[Cl-] [CaCl2]	–	–	–	–	–

Compound	Response in calcium mobilization assay (human CaSR R66A mutant; R66A mutant)	Response in calcium mobilization assay (human CaSR N102F mutant; N102F mutant)	EC50 (human CaSR N102F mutant; [1]) [mM]	Emax (human CaSR N102F mutant; N102F mutant) [%]	Emax (% of wild-type values) (human CaSR N102F mutant; N102F mutant)	Emax (% of wild-type values) (human CaSR R66A mutant; R66A mutant)	EC50 (human CaSR R66A mutant; R66A mutant) [mM]	EC50 (human CaSR R66A mutant; R66A mutant, ND not detected) [mM]	Emax (human CaSR R66A mutant; read-out: Emax (% of wild-type values)) [%]	EC50 of N102F mutant relative to wild-type EC50 (human CaSR N102F mutant; 6.52 / 0.18, N102F vs wild type)	EC50 (human CaSR N102F mutant; N102F mutant, read-out: EC50 of the N102F mutant) [mM]	Emax (human CaSR N102F mutant) [%]
CC(C)C(NC(=O)CCC(N)C(=O)O)C(=O)NCC(=O)O (stereo not drawn) [γ-EVG, γ-glutamyl-valyl-glycine] (γGlu-Val-Gly-OH; configuration not given here)	reduced its function compared to the wild-type	–	–	–	–	–	–	0.0189 ± 0.0005	53.6	approximately 36.2 fold	0.00652 ± 0.0001	95.7

— PMC11785791, “Cryo-EM structure of the calcium-sensing receptor complexed with the kokumi substance γ-glutamyl-valyl-glycine” (Scientific Reports, 2025)
